Test results from US5416073A, “Growth hormone-releasing peptides and method of treating animals, therewith” (The Adminstrators of the Tulane Educational Fund, priority 1985, dated 1995).
Square brackets hold non-standard residues; d marks the D form. Peptide text beside a SMILES is read from it.

Test system: Growth Hormone Release
Assay: Peptide effects on growth hormone release, plasma GH by RIA in anesthetized male rats
Format: in vivo, rat
Procedure: In this evaluation, the procedures described by W. A. Murphy et al., Endocrinology 109:491-495 (1980), were employed.
In growth hormone (GH) experiments, male rats (Charles Rivers) were anesthetized with NEMBUTAL® (6 mg per 100 g body weight) which also served to maintain stimulated plasma GH levels. Exactly 30 minutes after the rats were anesthetized, 0.5 mL of saline or the test peptide in saline was administered as a SC bolus. A 1 mL blood sample was drawn from the jugular vein 15 minutes after the injection of the peptide in saline. GH levels were determined using NIADDKD rat GH RIA components.

CCCC[C@H](NC(=O)[C@@H](NC(=O)[C@H](CC(=O)O)NC(=O)[C@H](CCC(N)=O)NC(=O)[C@H](CC(C)C)NC(=O)[C@H](CC(C)C)NC(=O)[C@H](CCCCN)NC(=O)[C@H](CCCNC(=N)N)NC(=O)[C@H](C)NC(=O)[C@H](CO)NC(=O)[C@H](CC(C)C)NC(=O)[C@H](CCC(N)=O)NC(=O)CNC(=O)[C@H](CC(C)C)NC(=O)[C@@H](NC(=O)[C@H](CCCCN)NC(=O)[C@H](CCCNC(=N)N)NC(=O)[C@H](Cc1ccc(O)cc1)NC(=O)[C@H](CO)NC(=O)[C@@H](CC(N)=O)NC(=O)[C@@H](NC(=O)[C@H](Cc1ccccc1)NC(=O)[C@@H](NC(=O)[C@H](C)NC(=O)[C@H](CC(=O)O)NC(=O)[C@@H](C)NC(=O)[C@@H](N)Cc1ccc(O)cc1)[C@@H](C)CC)[C@@H](C)O)C(C)C)[C@@H](C)CC)C(=O)N[C@@H](CO)C(=O)N[C@@H](CCCNC(=N)N)C(N)=O [D-Ala^2 -D-Asn^8 -Nle^27, D-alanine^2, D-asparagine^8, Norleucine^27-human Pancreatic Growth Hormone-Releasing(1-29)-amide]
Plasma GH (dose 0.05 ug/100 g BW SC, 15 min, saline 203 ± 39): 407 ± 53 ng/mL | Plasma GH (dose 0.5 ug/100 g BW SC, 15 min, saline 203 ± 39): 1613 ± 138 ng/mL

CCCC[C@H](NC(=O)[C@@H](NC(=O)[C@H](CC(=O)O)NC(=O)[C@H](CCC(N)=O)NC(=O)[C@H](CC(C)C)NC(=O)[C@H](CC(C)C)NC(=O)[C@H](CCCCN)NC(=O)[C@H](CCCNC(=N)N)NC(=O)[C@H](C)NC(=O)[C@H](CO)NC(=O)[C@H](CC(C)C)NC(=O)[C@H](CCC(N)=O)NC(=O)CNC(=O)[C@H](CC(C)C)NC(=O)[C@@H](NC(=O)[C@H](CCCCN)NC(=O)[C@H](CCCNC(=N)N)NC(=O)[C@H](Cc1ccc(O)cc1)NC(=O)[C@H](CO)NC(=O)[C@@H](CC(N)=O)NC(=O)[C@@H](NC(=O)[C@H](Cc1ccccc1)NC(=O)[C@@H](NC(=O)[C@H](C)NC(=O)[C@@H](CC(=O)O)NC(=O)[C@@H](C)NC(=O)[C@@H](N)Cc1ccc(O)cc1)[C@@H](C)CC)[C@@H](C)O)C(C)C)[C@@H](C)CC)C(=O)N[C@@H](CO)C(=O)N[C@@H](CCCNC(=N)N)C(N)=O [D-Ala^2 -D-Asp^3 -D-Asn^8 -Nle^27, D-alanine^2, D-aspartic acid^3, D-asparagine^8, Norleucine27-human Pancreatic Growth Hormone-Releasing(1-29)-amide]
Plasma GH (dose 0.1 ug/100 g BW SC, 15 min, saline 383 ± 79): 767 ± 146 ng/mL | Plasma GH (dose 1.0 ug/100 g BW SC, 15 min, saline 383 ± 79): 2419 ± 252 ng/mL

CCCC[C@H](NC(=O)[C@@H](NC(=O)[C@H](CC(=O)O)NC(=O)[C@H](CCC(N)=O)NC(=O)[C@H](CC(C)C)NC(=O)[C@H](CC(C)C)NC(=O)[C@H](CCCCN)NC(=O)[C@H](CCCNC(=N)N)NC(=O)[C@H](C)NC(=O)[C@H](CO)NC(=O)[C@H](CC(C)C)NC(=O)[C@H](CCC(N)=O)NC(=O)CNC(=O)[C@H](CC(C)C)NC(=O)[C@@H](NC(=O)[C@H](CCCCN)NC(=O)[C@H](CCCNC(=N)N)NC(=O)[C@H](Cc1ccc(O)cc1)NC(=O)[C@H](CO)NC(=O)[C@H](CC(N)=O)NC(=O)[C@@H](NC(=O)[C@H](Cc1ccccc1)NC(=O)[C@@H](NC(=O)[C@H](C)NC(=O)[C@H](CC(=O)O)NC(=O)[C@@H](C)NC(=O)[C@@H](N)Cc1ccc(O)cc1)[C@@H](C)CC)[C@@H](C)O)C(C)C)[C@@H](C)CC)C(=O)N[C@@H](CO)C(=O)N[C@@H](CCCNC(=N)N)C(N)=O [D-Ala^2 -Nle^27, D-alanine^2, Norleucine^27-human Pancreatic Growth Hormone-Releasing(1-29)-amide]
Plasma GH (dose 0.1 ug/100 g BW SC, 15 min, saline 278 ± 37): 465 ± 75 ng/mL | Plasma GH (dose 1.0 ug/100 g BW SC, 15 min, saline 278 ± 37): 2287 ± 265 ng/mL

CC[C@H](C)[C@H](NC(=O)[C@H](C)NC(=O)[C@H](CC(=O)O)NC(=O)[C@H](C)NC(=O)[C@H](Cc1ccc(O)cc1)NC(C)=O)C(=O)N[C@@H](Cc1ccccc1)C(=O)N[C@H](C(=O)N[C@@H](CC(N)=O)C(=O)N[C@@H](CO)C(=O)N[C@@H](Cc1ccc(O)cc1)C(=O)N[C@@H](CCCNC(=N)N)C(=O)N[C@@H](CCCCN)C(=O)N[C@H](C(=O)N[C@@H](CC(C)C)C(=O)NCC(=O)N[C@@H](CCC(N)=O)C(=O)N[C@@H](CC(C)C)C(=O)N[C@@H](CO)C(=O)N[C@@H](C)C(=O)N[C@@H](CCCNC(=N)N)C(=O)N[C@@H](CCCCN)C(=O)N[C@@H](CC(C)C)C(=O)N[C@@H](CC(C)C)C(=O)N[C@@H](CCC(N)=O)C(=O)N[C@@H](CC(=O)O)C(=O)N[C@H](C(=O)N[C@@H](CCSC)C(=O)N[C@@H](CO)C(=O)N[C@@H](CCCNC(=N)N)C(N)=O)[C@@H](C)CC)C(C)C)[C@@H](C)O [N-Ac-hpGRF(1-29)-NH2, N-acetyl Human Pancreatic Growth Hormone-Releasing Factor(1-29)-Amide]
Plasma GH (dose 1.20 μg/100 g BW SC, 15 min, saline 342 ± 53): 2518 ± 598 ng/mL | Plasma GH (dose 3.0 μg/100 g BW SC, 15 min, saline 342 ± 53): 4899 ± 557 ng/mL

CC[C@H](C)[C@H](NC(=O)[C@H](C)NC(=O)[C@@H](CC(=O)O)NC(=O)[C@@H](C)NC(=O)[C@@H](Cc1ccc(O)cc1)NC(C)=O)C(=O)N[C@@H](Cc1ccccc1)C(=O)N[C@H](C(=O)N[C@@H](CC(N)=O)C(=O)N[C@@H](CO)C(=O)N[C@@H](Cc1ccc(O)cc1)C(=O)N[C@@H](CCCNC(=N)N)C(=O)N[C@@H](CCCCN)C(=O)N[C@H](C(=O)N[C@@H](CC(C)C)C(=O)NCC(=O)N[C@@H](CCC(N)=O)C(=O)N[C@@H](CC(C)C)C(=O)N[C@@H](CO)C(=O)N[C@@H](C)C(=O)N[C@@H](CCCNC(=N)N)C(=O)N[C@@H](CCCCN)C(=O)N[C@@H](CC(C)C)C(=O)N[C@@H](CC(C)C)C(=O)N[C@@H](CCC(N)=O)C(=O)N[C@@H](CC(=O)O)C(=O)N[C@H](C(=O)N[C@@H](CCSC)C(=O)N[C@@H](CO)C(=O)N[C@@H](CCCNC(=N)N)C(N)=O)[C@@H](C)CC)C(C)C)[C@@H](C)O [N-acetyl-D-tyrosine^1,D-alanine^2,D-aspartic acid^3-human Pancreatic Growth Hormone-Releasing(1-29)-amine]
Plasma GH (dose 1.0 μg/100 g BW SC, 15 min, saline 541 ± 78): 1181 ± 164 ng/mL | Plasma GH (dose 5.0 μg/100 g BW SC, 15 min, saline 541 ± 78): 3594 ± 754 ng/mL

CC[C@H](C)[C@H](NC(=O)[C@H](C)NC(=O)[C@H](CC(=O)O)NC(=O)[C@@H](C)NC(=O)[C@@H](N)Cc1ccc(O)cc1)C(=O)N[C@@H](Cc1ccccc1)C(=O)N[C@H](C(=O)N[C@@H](CC(N)=O)C(=O)N[C@@H](CO)C(=O)N[C@@H](Cc1ccc(O)cc1)C(=O)N[C@@H](CCCNC(=N)N)C(=O)N[C@@H](CCCNC(=N)N)C(=O)N[C@H](C(=O)N[C@@H](CC(C)C)C(=O)NCC(=O)N[C@@H](CCC(N)=O)C(=O)N[C@@H](CC(C)C)C(=O)N[C@@H](CO)C(=O)N[C@@H](C)C(=O)N[C@@H](CCCNC(=N)N)C(=O)N[C@@H](CCCNC(=N)N)C(=O)N[C@@H](CC(C)C)C(=O)N[C@@H](CC(C)C)C(=O)N[C@@H](CCC(N)=O)C(=O)N[C@@H](CC(=O)O)C(=O)N[C@H](C(=O)N[C@@H](CCSC)C(=O)N[C@@H](CO)C(=O)N[C@@H](CCCNC(=N)N)C(N)=O)[C@@H](C)CC)C(C)C)[C@@H](C)O [[D-Ala^2, Arg^12, 21]-hpGRF(1-29)-NH2, D-alanine^2, Arginine^12,21-human Growth Hormone-Releasing (1-29)-amide] (H-Y[dA]DAIFTNSYRRVLGQLSARRLLQDIMSR-NH2)
Plasma GH (dose 0.4 μ/100 g BW SC, 15 min, saline 309 ± 20): 755 ± 131 ng/mL | Plasma GH (dose 1.0 μ/100 g BW SC, 15 min, saline 309 ± 20): 1752 ± 289 ng/mL

CC[C@H](C)[C@H](NC(=O)[C@H](C)NC(=O)[C@H](CC(=O)O)NC(=O)[C@@H](C)NC(=O)[C@@H](Cc1ccc(O)cc1)NC(C)=O)C(=O)N[C@@H](Cc1ccccc1)C(=O)N[C@H](C(=O)N[C@@H](CC(N)=O)C(=O)N[C@@H](CO)C(=O)N[C@@H](Cc1ccc(O)cc1)C(=O)N[C@@H](CCCNC(=N)N)C(=O)N[C@@H](CCCCN)C(=O)N[C@H](C(=O)N[C@@H](CC(C)C)C(=O)NCC(=O)N[C@@H](CCC(N)=O)C(=O)N[C@@H](CC(C)C)C(=O)N[C@@H](CO)C(=O)N[C@@H](C)C(=O)N[C@@H](CCCNC(=N)N)C(=O)N[C@@H](CCCCN)C(=O)N[C@@H](CC(C)C)C(=O)N[C@@H](CC(C)C)C(=O)N[C@@H](CCC(N)=O)C(=O)N[C@@H](CC(=O)O)C(=O)N[C@H](C(=O)N[C@@H](CCSC)C(=O)N[C@@H](CO)C(=O)N[C@@H](CCCNC(=N)N)C(N)=O)[C@@H](C)CC)C(C)C)[C@@H](C)O [[N-Ac-D-Tyr^1, D-Ala^2]-hpGRF(1-29)-NH2, N-acetyl-D-tyrosine^1,D-alanine^2-human pancreatic growth hormone-releasing (1-29)-amine]
Plasma GH (dose 0.2 μ/100 g BW SC, 15 min, saline 333 ± 50): 680 ± 100 ng/mL | Plasma GH (dose 0.5 μ/100 g BW SC, blood 15 min after injection, saline 333 ± 50): 499 ± 50 ng/mL | Plasma GH (dose 0.8 μ/100 g BW SC, 15 min, saline 333 ± 50): 2063 ± 251 ng/mL | Plasma GH (dose 3.2 μ/100 g BW SC, 15 min, saline 333 ± 50): 3818 ± 412 ng/mL

Ac-YADAIFTNSYRRVLGQLSARRLLQDIMSR-NH2 [[N-Ac-Tyr, Arg^12, 21]-hpGRF(1-29)-NH2, N-acetyl Arginine^12,21-human Pancreatic Growth Hormone-Releasing Factor (1-29)-amide]
Plasma GH (dose 1 μ/100 g BW SC, 15 min, saline 27% ± 54): 796 ± 88 ng/mL | Plasma GH (dose 2.5 μ/100 g BW SC, 15 min, saline 27% ± 54): 1649 ± 167 ng/mL

D-asparagine^8 -human Pancreatic Growth Hormone-Releasing(1-29)-amide [D-Asn^8]
Plasma GH (dose 4 ug/100 g BW SC, 15 min, saline 366 ± 81): 1296 ± 118 ng/mL | Plasma GH (dose 10 ug/100 g BW SC, 15 min, saline 366 ± 81): 2397 ± 246 ng/mL

D-serine-9-human Pancreatic Growth Hormone-Releasing(1-29)-amine [D-Ser^9]
% Potency (by comparison to pooled standards GRF(1-29)-NH2, limits in parenthesis): 108 (77-151) % | Plasma GH (dose 16 (unit not given), SC, 15 min): 1804 ± 312 | Plasma GH (dose 40 (unit not given), SC, 15 min): 3652 ± 370
